Assay results taken from the NIST ThermoML archive (doi:10.1016/j.fluid.2018.10.006).
Where “and” joins values, the source holds several entries; their conditions need not be identical. Equal values may be shown once.

Conditions: Fluid (supercritical or subcritical phases), Coaxial cylinder method

CCCCCC [hexane]
thermal conductivity
Conditions	508.17 K	508.92 K
900 kPa	–	0.03769 W/m/K
1100 kPa	–	0.03855 W/m/K
1234 kPa	–	0.03889 W/m/K
1401 kPa	–	0.03933 W/m/K
1510 kPa	–	0.03959 W/m/K
1603 kPa	–	0.03996 W/m/K
1710 kPa	–	0.04032 W/m/K
1806 kPa	–	0.0407 W/m/K
1908 kPa	–	0.04118 W/m/K
2006 kPa	–	0.04167 W/m/K
2111 kPa	–	0.04248 W/m/K
2210 kPa	–	0.043 W/m/K
2300 kPa	–	0.04353 W/m/K
2409 kPa	–	0.04463 W/m/K
2509 kPa	–	0.04579 W/m/K
2600 kPa	–	0.04701 W/m/K
2650 kPa	–	0.04777 W/m/K
2726 kPa	–	0.0491 W/m/K
2744 kPa	–	0.04937 W/m/K
2752 kPa	–	0.04965 W/m/K
2763 kPa	–	0.04993 W/m/K
2847 kPa	–	0.05261 W/m/K
2898 kPa	–	0.05429 W/m/K
2902 kPa	–	0.05464 W/m/K
2927 kPa	–	0.05568 W/m/K
2949 kPa	0.0646 W/m/K	–
2953 kPa	0.06509 W/m/K	–
2955 kPa	–	0.05752 W/m/K
2956 kPa	0.06509 W/m/K	–
2963 kPa	0.06603 W/m/K	–
2966 kPa	0.06628 W/m/K	–
2968 kPa	–	0.05888 W/m/K
2970 kPa	0.06681 W/m/K	–
2974 kPa	0.06734 W/m/K	–
2975 kPa	–	0.05948 W/m/K
2979 kPa	0.06826 W/m/K	–
2982 kPa	0.0687 W/m/K	–
2985 kPa	–	0.06031 W/m/K
2988 kPa	–	0.06094 W/m/K
2990 kPa	0.07041 W/m/K	–
2991 kPa	0.0707 W/m/K	–
2992 kPa	–	0.06115 W/m/K
2995 kPa	0.07129 W/m/K	–
2998 kPa	0.07219 W/m/K	–
2999 kPa	–	0.06202 W/m/K
3002 kPa	0.07324 W/m/K	–
3004 kPa	–	0.06246 W/m/K
3007 kPa	0.07436 W/m/K	–
3009 kPa	0.07488 W/m/K	–
3011 kPa	–	0.06336 W/m/K
3013 kPa	0.0758 W/m/K	–
3015 kPa	0.07648 W/m/K	0.06429 W/m/K
3017 kPa	0.07703 W/m/K	–
3019 kPa	–	0.06477 W/m/K
3021 kPa	0.07822 W/m/K	–
3022 kPa	0.07848 W/m/K	–
3024 kPa	0.0792 W/m/K	–
3025 kPa	–	0.06574 W/m/K
3026 kPa	0.07994 W/m/K	–
3028 kPa	–	0.06624 W/m/K
3029 kPa	0.08069 W/m/K	–
3031 kPa	0.08185 W/m/K	–
3033 kPa	0.08287 W/m/K	0.06751 W/m/K
3034 kPa	0.08344 W/m/K	–
3035 kPa	–	0.06804 W/m/K
3036 kPa	0.08467 W/m/K	–
3037 kPa	0.08467 W/m/K	–
3038 kPa	0.08604 W/m/K	–
3039 kPa	0.08566 W/m/K	0.06857 W/m/K
3040 kPa	0.08735 W/m/K	–
3041 kPa	0.08647 W/m/K and 0.08824 W/m/K	–
3042 kPa	0.09103 W/m/K	0.06938 W/m/K
3043 kPa	0.09201 W/m/K	–
3044 kPa	–	0.06994 W/m/K
3045 kPa	0.09401 W/m/K	–
3046 kPa	0.09504 W/m/K	–
3047 kPa	0.0961 W/m/K	–
3048 kPa	0.09828 W/m/K	0.07107 W/m/K
3049 kPa	0.09941 W/m/K	–
3050 kPa	0.1017 W/m/K	0.0715 W/m/K
3051 kPa	0.1048 W/m/K	–
3052 kPa	0.1081 W/m/K	0.07223 W/m/K
3053 kPa	0.1119 W/m/K	–
3054 kPa	0.1168 W/m/K	–
3055 kPa	0.1226 W/m/K	0.07344 W/m/K
3056 kPa	0.1319 W/m/K	0.07375 W/m/K
3057 kPa	0.1487 W/m/K	–
3058 kPa	0.1625 W/m/K	–
3059 kPa	0.1438 W/m/K	0.07469 W/m/K
3060 kPa	0.1319 W/m/K	0.07532 W/m/K
3061 kPa	0.1231 W/m/K	–
3062 kPa	0.1168 W/m/K	–
3063 kPa	0.1123 W/m/K	0.0763 W/m/K
3064 kPa	0.1088 W/m/K	–
3065 kPa	0.106 W/m/K	0.07747 W/m/K
3066 kPa	0.1039 W/m/K	–
3067 kPa	0.1024 W/m/K	0.07868 W/m/K
3068 kPa	0.1006 W/m/K	0.07903 W/m/K
3069 kPa	0.09945 W/m/K	0.0801 W/m/K
3070 kPa	0.09832 W/m/K	0.08047 W/m/K
3071 kPa	0.09743 W/m/K	0.08084 W/m/K
3073 kPa	0.09613 W/m/K	0.08254 W/m/K
3074 kPa	0.09508 W/m/K	0.08353 W/m/K
3075 kPa	0.09456 W/m/K	0.08412 W/m/K
3076 kPa	0.09404 W/m/K	0.08532 W/m/K
3077 kPa	0.09323 W/m/K	0.08593 W/m/K
3078 kPa	0.09287 W/m/K	0.08697 W/m/K
3079 kPa	0.09237 W/m/K	0.08803 W/m/K
3080 kPa	0.09171 W/m/K	0.08934 W/m/K
3081 kPa	0.09127 W/m/K	0.09069 W/m/K
3082 kPa	0.09079 W/m/K	0.09234 W/m/K
3083 kPa	0.09032 W/m/K	0.09384 W/m/K
3084 kPa	0.08985 W/m/K	0.09568 W/m/K
3085 kPa	0.08955 W/m/K	0.0977 W/m/K
3086 kPa	0.0889 W/m/K	0.1001 W/m/K
3087 kPa	0.08845 W/m/K	0.103 W/m/K
3088 kPa	0.088 W/m/K	–
3089 kPa	0.08755 W/m/K	–
3090 kPa	0.08755 W/m/K	–
3091 kPa	0.08711 W/m/K	–
3092 kPa	0.08667 W/m/K	–
3094 kPa	0.08581 W/m/K	–
3095 kPa	0.08539 W/m/K	–
3100 kPa	0.08334 W/m/K	–
3105 kPa	0.08267 W/m/K	–
3108 kPa	0.08217 W/m/K	–
3115 kPa	0.08124 W/m/K	–
3120 kPa	0.08025 W/m/K	–
3125 kPa	0.08032 W/m/K	–
3130 kPa	0.08032 W/m/K	–
3132 kPa	0.08032 W/m/K	–
